Data as given in paper PMC9749932, “A high-throughput effector screen identifies a novel small molecule scaffold for inhibition of ten-eleven translocation dioxygenase 2” (RSC Medicinal Chemistry, 2022).
Where two headings read alike, the source gives them in different places.

Assays:
human TET2 [1] = biological target: T1, human TET2 (Homo sapiens, UniProt Q6N021); details: for IC50 / inhibition of TET2 activity (in words): MALDI assay; for IC50: resynthesized/synthesized compounds, highest concentration 200 µM; for inhibition of TET2: additional experiments, data not shown, assay format not stated; for inhibition of TET2 activity (in words): synthesized compounds
TET1 = tested on: TET1; parameters: method as in PMID 35586434; details: cited from earlier work
TET2 = tested on: TET2; parameters: method as in PMID 35586434; details: cited from earlier work
human TET2 [2] = biological target: T1, human TET2; details: FRET assay dose response; three independent experiments with technical duplicates
Procedure: Use of a DNA duplex terminally labelled with a FRET donor/acceptor dye pair (Cy3/Cy5) thereby enables measuring the amount of caC product generated from an mC duplex by TET (Fig. 1A). […] We identified an universal buffer system (50 mM potassium acetate, 20 mM Tris-acetate, 10 mM magnesium acetate, 100 μg ml^−1 BSA, pH 7.9) that was compatible with the activity of both TET2 and MspI, and thus was applicable to one pot reactions without intermediate purification steps. We incubated 0.5 μM of the DNA duplex with TET2 at different concentrations under aerobic conditions and in the presence of essential assay components, i.e. α-KG, ascorbate, dithiothreitol (DTT), and Fe(II) at 37 °C and pH 8 for 1 hour. We then added 20 U MspI enzyme to determine the caC level generated by TET2-mediated oxidation.
For screening, we premixed the annealed oligonucleotides with TET2 and all other essential components except Fe(II) in 1536-well plates, followed by the acoustic transfer of test compounds into each well at a final concentration of 50 μM. […] In order to distinguish the false-positive hits, we normalized the final Cy5 fluorescence of each well to its respective initial value immediately after MspI addition. […]
fluorescence signals were recorded on an Infinite® M1000 (Tecan). […]

Row | Structure (SMILES) | IC50 (human TET2 [1]) [µM] | other results
1 | O=S(=O)(Nc1ccccc1)c1ccc(F)c2ncc(I)cc12 [compound 11] | 23.9 ± 4.1 | –
2 | Nc1nc(=O)n(-c2cccc(-c3ccccc3)c2)cc1Cl [Bobcat339] | – | inhibition of TET1 (TET1): not be an inhibitor; inhibition of TET2 (TET2): not be an inhibitor
3 | O=C(O)c1ccnc(Br)c1 [2-bromoisonicotinic acid, reference compound] | – | inhibition of TET2 (human TET2 [1]): no inhibition
4 | O=S(=O)(NCc1ccccc1)c1ccc(F)c2ncc(I)cc12 [compound 13] | > 200 | –
5 | CC(C)OS(=O)(=O)c1ccc(F)c2ncc(I)cc12 [compound 5] | > 200 | –
6 | CNS(=O)(=O)c1ccc(F)c2ncc(I)cc12 [compound 9] | > 200 | inhibition of TET2 activity (in words) (human TET2 [1]): inactive
7 | NS(=O)(=O)c1ccc(F)c2ncc(I)cc12 [compound 8] | 86.6 ± 5.6 | –
8 | CCCCCOS(=O)(=O)c1ccc(F)c2ncc(I)cc12 [compound 6] | > 200 | –
9 | O=S(=O)(Nc1cccc(O)c1)c1ccc(F)c2ncc(I)cc12 [compound 16] | > 200 | –
10 | Nc1ccccc1S(=O)(=O)O [o-anilinesulfonic acid, reference compound] | – | inhibition of TET2 (human TET2 [1]): no inhibition
11 | O=S(=O)(c1ccc(F)c2ncc(I)cc12)N1CCCC1 [compound 10] | > 200 | inhibition of TET2 activity (in words) (human TET2 [1]): inactive
12 | Cc1ccc(S(=O)(=O)O)cc1 [p-toluenesulfonic acid, reference compound] | – | inhibition of TET2 (human TET2 [1]): no inhibition
13 | CC(=O)N(O)CCCCCNC(=O)CCC(=O)N(O)CCCCCNC(=O)CCC(=O)N(O)CCCCCN [DFOA, deferoxamine] | – | IC50 (human TET2 [2]): 46 µM
14 | O=S(=O)(NCCc1ccccc1)c1ccc(F)c2ncc(I)cc12 [compound 14] | > 200 | –
